Laboratory results taken from patent EP1914236A1 (Ortho-McNeil Pharmaceutical, Inc., priority 2002, dated 2003).

Columns and labels:
[1] = biological target: T1, human B2 bradykinin receptors (Homo sapiens, UniProt P30411); assay: Bradykinin B2 (BK2) Receptor Binding Assay; conditions: membranes of CHO-K1 cells transfected with human B2 bradykinin receptors; ~0.25 nM [3H]NPC17731; 60 min at 25°C
T1 construct: purchased Receptor Biology, Inc. (Baltimore, MD); host or cells: CHO-K1 cells transfected with the human B2 receptor (membranes)
T1 sequence (P30411 1-391): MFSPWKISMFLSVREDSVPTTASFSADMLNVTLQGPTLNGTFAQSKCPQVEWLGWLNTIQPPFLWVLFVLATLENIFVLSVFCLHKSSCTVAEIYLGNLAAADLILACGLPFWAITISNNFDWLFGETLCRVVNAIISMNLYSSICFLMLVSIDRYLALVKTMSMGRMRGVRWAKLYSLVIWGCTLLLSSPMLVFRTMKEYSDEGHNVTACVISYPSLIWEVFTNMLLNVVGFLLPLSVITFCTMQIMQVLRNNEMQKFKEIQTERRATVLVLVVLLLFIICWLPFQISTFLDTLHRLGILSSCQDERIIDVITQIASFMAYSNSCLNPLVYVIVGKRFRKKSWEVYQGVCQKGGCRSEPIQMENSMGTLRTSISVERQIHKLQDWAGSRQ
Summary of the method: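 Membranes came from CHO-K1 cells expressing human B2 receptors; bound radioligand was collected by filtration and washed with cold 10 mM HEPES, pH 7.5. Single concentrations gave % inhibition of specific binding, and concentration ranges gave Ki values.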

[2] = Graded Abdominal Irritant Test (GrAIT); type: in vivo; conditions: for % Inhibition: 30 minutes before kaolin (100 mg/kg intraperitoneally), responses counted for 15 minutes, dose not given
Experimental: The Graded Abdominal Irritant Test (GrAIT) is a modification of the methods described by Koster et al. (Koster R., Anderson M and DeBeer E. J. Fed. Proc. 1959, 18, 412). Prior to the test (30 minutes for oral or subcutaneous administration), each animal was administered a known analgesic, a test compound, or vehicle (0.05N HCl) by one of two routes (oral or subcutaneous).
Kaolin (100 mg/kg) was injected intraperitoneally (using a standard 23G needle) at a volume of 10mL/kg of body weight. Following the administration of the chemical agent, the animals were placed in glass bell jars (approximately 15cm in diameter with wood chips on the bottom). […] A contraction of the abdominal musculature and an elongation of the body, which extends through to the hindlimbs, characterize this response. The responses were counted during the 15-minute time period after the injection of the kaolin. A mechanical counter or a personal computer was used to collect the number of counts per animal, and animals were observed no more than 5 at a time.
The mean number of counts (±SEM) for a group of animals receiving a known analgesic or test compound was compared to the mean for the group of animals which received only vehicle pretreatment (Control group). For each dose, % inhibition of the response was calculated. For each test compound, the EDso value was calculated using a log dose regression analysis program (PharmTools software).

[3] = biological target: T2, CHO-hB2 cell membranes (Homo sapiens, UniProt P30411); assay: [35S]GTPγS Binding Assay in CHO-hB2 Cell Membranes; type: biochemical; conditions: for Functional Activity (% Basal): number in parentheses, bradykinin-stimulated [35S]GTPγS binding, test concentration not given; for Functional Activity: word part of the cell, effect on bradykinin-stimulated [35S]GTPγS binding
T2 construct: purchased Receptor Biology, Inc. (Baltimore, MD); host or cells: CHO-hB2 cells (membranes)
T2 sequence (P30411 1-391): T1 sequence (P30411 1-391)
Experimental: CHO-hB2 cell membranes were purchased from Receptor Biology, Inc. (Baltimore,MD). 10 mg/mL of membrane protein was suspended in 10 mM TRIS-HC pH 7.2, 2 mM EDTA, 10% sucrose.
Membranes were added into 15 mL ice cold binding assay buffer. The assay buffer contained 50 mM HEPES, pH 7.6, 5 mM MgCl2, 100 mM NaCl, 1 mM DTT and 1 mM EDTA. The membrane suspension was homogenized twice with a Polytron and centrifuged at 3000 rpm for 10 min. The supernatant was then centrifuged at 18,000 rpm for 20 min. The pellet was saved in a tube and resuspended.
The pellet membranes (40 µg/mL) were preincubated with SPA (scintillation proximity assay) beads (20 mg/mL) at 25C° for 45 min in the assay buffer. The SPA beads (5 mg/mL) coupled with membranes (10 µg/mL) were then incubated with 0.5 nM [^35S]GTPγS in the same HEPES buffer containing 50 µM GDP in total volume of 200 µL. Bradykinin was used to stimulate [^35S]GTPγS binding. Varying concentrations of drugs were incubated with bradykinin to inhibit bradykinin-stimulated [^35S]GTPγS binding. The basal binding was tested in the absence of bradykinin and no specific binding was tested in the present 10 µM unlabeled GTPγS. The radioactivity was quantified on a Packard Top Count, and calculated. % of Basal = (stimulated binding-non specific binding)/(basal binding-non specific binding) × 100. [formula]

| SMILES | Ki [1] [nM] | Functional Activity (% Basal) [3] [% Basal] | Functional Activity [3] | % Inhibition ([2]; po) | % Inhibition ([2]; sc) [%] | ED50 ([2]; po, log dose regression analysis) [µmol/kg] |
| --- | --- | --- | --- | --- | --- | --- |
| CCn1c(CC(=O)N(C)c2ccc(C)c(COc3cccc4ccc(C)nc34)c2C)ccc1C(=O)c1ccc(C#N)cc1 [Compound 7] | 48 | – | – | 26% | 42 | – |
| CCn1c(CC(=O)N(C)c2ccc(Cl)c(COc3cccc4ccc(C)nc34)c2Cl)ccc1C(=O)c1ccc(C#N)cc1 [Compound 8] | 13 | 40 | Antagonist | -11% | 44 | – |
| Cc1ccc2cccc(OCc3c(Cl)ccc(N(C)C(=O)Cc4ccc(C(=O)c5ccncc5)n4C)c3Cl)c2n1 [Compound 60, N-[2,4-Dichloro-3-(2-methyl-quinolin-8-yloxymethyl)-phenyl]-N-methyl-2-[1-methyl-5-(pyridine-4-carbonyl)-1 H-pyrrol-2-yl]-acetamide] | 400 | – | – | 44po % | – | – |
| Cc1ccc2cccc(OCc3c(Cl)ccc(N(C)C(=O)Cc4ccc(C(=O)c5ccc(Cl)nc5)n4C)c3Cl)c2n1 [Compound 67, 2-[5-(6-Chloro-pyridine-3-carbonyl)-1-methyl-1H-pyrrol-2-yl]-N-[2,4-dichloro-3-(2-methyl-quinolin-8-yloxymethyl)-phenyl]-N-methyl-acetamide] | 194 | 55 | Antagonist | 78% | 100 | 68.8 |
| Cc1ccc2cccc(OCc3c(Cl)ccc(N(C)C(=O)Cc4ccc(C(=O)c5ccc([S+](C)[O-])cc5)n4C)c3Cl)c2n1 (centres unmarked) [Compound 73, N-[2,4-Dichloro-3-(2-methyl-quinolin-8-yloxymethyl)-phenyl]-2-[5-(4-methanesuifinyl-benzoyl)-1-methyl-1H-pyrrol-2-yl]-N-methyl-acetamide] | 64 | 78 | Antagonist | – | – | – |
| CC(=O)Nc1ccc(C(=O)c2ccc(CC(=O)N(C)c3ccc(Cl)c(COc4cccc5ccc(C)nc45)c3Cl)n2C)cc1 [Compound 74, 2-[5-(4-Acetylamino-benzoyl)-1-methyl-1 H-pyrrol-2-yl]-N-[2,4-dichloro-3-(2-methyl-quinolin-8-yloxymethyl)-phenyl]-N-methyl-acetamide] | 68 | 33 | Antagonist | -6% | 88 | – |
| Cc1ccc2cccc(OCc3c(C)ccc(N(C)C(=O)CCc4ccc(C(=O)c5cccs5)n4C)c3C)c2n1 [Compound 80] | 141 | 12 | Weak antagonist | – | – | – |
| Cc1ccc2cccc(OCc3c(Cl)ccc(N(C)C(=O)CCc4ccc(C(=O)c5cccs5)n4C)c3Cl)c2n1 [Compound 81] | 304 | 1 | No effect | – | – | – |
| Cc1ccc2cccc(OCc3c(C)ccc(N(C)C(=O)CCc4ccc(C(=O)c5ccncc5)n4C)c3C)c2n1 [Compound 82] | 450 | 50 | Antagonist | – | – | – |
| Cc1ccc2cccc(OCc3c(C)ccc(N(C)C(=O)CCc4ccc(C(=O)c5cccnc5)n4C)c3C)c2n1 [Compound 84] | 304 | 57 | Antagonist | – | – | – |
| CC(=O)Nc1ccc(C=CC(=O)NC[C@H]2CCCN2c2ccc(C)c(COc3cccc4ccc(C)nc34)c2C)cn1 [Compound 112, 3-(6-Acetytamino-pyridin-3-yl)-N-{1-[2,4-dimethyl-3-(2-methyl-quinolin-8-yloxymethyl)-phenyl]-pyrrolidin-2-(R)ylmethyl}-acrylamide.] | 54 | 59 | Antagonist | – | – | – |

Further molecules by falling Ki [1], results first:

| Ki [1] [nM] | Functional Activity (% Basal) [3] [% Basal] | Functional Activity [3] | SMILES | % Inhibition ([2]; po) | % Inhibition ([2]; sc) [%] | ED50 ([2]; po, log dose regression analysis) [µmol/kg] |
| --- | --- | --- | --- | --- | --- | --- |
| 342 | 1 | No effect | CCN(C(=O)Cc1ccc(C(=O)c2ccc(Cl)nc2)n1C)c1ccc(Cl)c(COc2cccc3ccc(C)nc23)c1Cl [Compound 17] | -1% | 47 | – |
| 168 | 45 | Antagonist | Cc1ccc2cccc(OCc3c(Cl)ccc(N(C)C(=O)CCc4ccc(C(=O)c5ccncc5)n4C)c3Cl)c2n1 [Compound 83] | – | – | – |
| 132 | 1 | No effect | CCN(C(=O)Cc1ccc(C(=O)c2ccc(C#N)cc2)n1C)c1ccc(C)c(COc2cccc3ccc(C)nc23)c1C [Compound 16] | 46% | 58 | – |
| 86.4 | 35 | Antagonist | Cc1ccc2cccc(OCc3c(Cl)cc(Cl)c(N(C)C(=O)Cc4ccc(C(=O)c5ccc(Cl)nc5)n4C)c3Cl)c2n1 [Compound 117, 2-[5-(6-Chloro-pyridine-3-carbonyl)-1-methyl-1H-pyrrol-2-yl]-N-methyl-N-[2,4,6-trichloro-3-(2-methyl-quinolin-8-yloxymethyl)-phenyl]-acetamide] | – | – | – |
| 47 | 73 | Antagonist | Cc1ccc2cccc(OCc3c(Cl)ccc(N(C)C(=O)Cc4ccc(C(=O)c5ccc(S(C)(=O)=O)cc5)n4C)c3Cl)c2n1 [Compound 75, N-[2,4-Dichloro-3-(2-methyl-quinolin-8-yloxymethyl)-phenyl]-2-[5-(4-methanesulfonyl-benzoyl)-1-methyl-1 H-pyrrol-2-yl]-N-methyl-acetamide] | 50% | 93.3 | – |
| 41 | 79 | Antagonist | Cc1ccc2cccc(OCc3c(Cl)ccc(N(C)C(=O)Cc4ccc(C(=O)c5ccc(C#N)cc5)n4C)c3Cl)c2n1 [Compound 76] | 22% | 100 | – |
| 15 | 65 | Antagonist | Cc1ccc2cccc(OCc3c(Cl)ccc(N(C)C(=O)CCc4ccc(C(=O)c5cccnc5)n4C)c3Cl)c2n1 [Compound 85] | – | – | – |
